Measurements published in ChEMBL document CHEMBL5625193, “Modulation of taxane binding to tubulin curved and straight conformations by systematic 3'N modification provides for improved microtubule binding, persistent cytotoxicity and in vivo potency” (Eur J Med Chem, 2023).

Experiments:
[1] = human, mda-mb-231, 2 h
[2] = human, mda-mb-231, 24 h

Drug uptake [1]: Active | Drug uptake [2]: Active
SMILES: CC(=O)O[C@H]1C(=O)[C@@]2(C)[C@H]([C@H](OC(=O)c3ccccc3)[C@]3(O)C[C@H](OC(=O)[C@H](O)[C@@H](NC(=O)c4ccccc4)c4ccccc4)C(C)=C1C3(C)C)[C@]1(OC(C)=O)CO[C@@H]1C[C@@H]2O [PACLITAXEL]
